# According to patent publication US7999108B2, “Benzyl amines, a process for their production and their use as anti-inflammatory agents” (Bayer Schering Pharma AG, priority 2006, dated 2011):
# Legend:
# [1] = tested on: secretion of cytokine IL-8 in human monocyte cell line THP-1 triggered by lipopolysaccharide (LPS); assay: Inhibition of LPS-triggered IL-8 secretion in THP-1 cells (ELISA); type: cell-based; details: IL-8 in supernatant by ELISA, read-out: IC50(IL8)
# Description: The concentration of the cytokines was determined in the supernatant by means of commercially available ELISA kits.
# [2] = target: T1, glucocorticoid receptor (GR) (Homo sapiens, UniProt P04150); assay: Binding to the glucocorticoid receptor (GR), recombinantly produced receptor, Sf9 cytosol preparations; details: recombinant GR, cytosol of baculovirus-infected Sf9 cells, reference [3H]-dexamethasone
# T1 construct: made in house; host or cells: Sf9 insect cells infected with recombinant baculovirus; cytosol preparation
# T1 sequence (P04150 1-777): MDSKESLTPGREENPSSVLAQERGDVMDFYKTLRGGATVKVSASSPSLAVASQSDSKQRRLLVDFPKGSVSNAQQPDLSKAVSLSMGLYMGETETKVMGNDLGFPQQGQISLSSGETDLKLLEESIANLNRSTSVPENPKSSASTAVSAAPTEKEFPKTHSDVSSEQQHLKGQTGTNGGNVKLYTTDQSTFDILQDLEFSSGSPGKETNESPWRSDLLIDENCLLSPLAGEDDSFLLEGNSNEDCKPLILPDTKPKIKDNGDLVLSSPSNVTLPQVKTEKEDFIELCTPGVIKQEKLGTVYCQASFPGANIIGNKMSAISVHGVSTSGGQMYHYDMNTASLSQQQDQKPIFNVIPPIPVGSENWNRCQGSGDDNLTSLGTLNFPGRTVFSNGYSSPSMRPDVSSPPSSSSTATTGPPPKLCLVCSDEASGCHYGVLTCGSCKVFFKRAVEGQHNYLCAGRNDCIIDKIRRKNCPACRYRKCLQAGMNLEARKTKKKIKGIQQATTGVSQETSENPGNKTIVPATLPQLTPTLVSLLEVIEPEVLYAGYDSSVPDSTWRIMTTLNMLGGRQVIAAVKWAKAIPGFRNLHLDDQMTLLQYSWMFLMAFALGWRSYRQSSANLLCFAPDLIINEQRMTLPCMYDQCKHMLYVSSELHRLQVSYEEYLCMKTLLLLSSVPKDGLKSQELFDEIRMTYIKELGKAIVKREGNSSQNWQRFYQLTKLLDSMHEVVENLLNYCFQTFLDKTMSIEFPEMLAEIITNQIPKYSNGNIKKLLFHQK
# Description: The binding of the substances to the glucocorticoid receptor (GR) and other steroid hormone receptors (mineral corticoid receptor (MR), progesterone receptor (PR) and androgen receptor (AR)) is examined with the aid of recombinantly produced receptors. Cytosol preparations of Sf9 cells, which had been infected with recombinant baculoviruses, which code for the GR, are used for the binding studies. In comparison to reference substance [^3H]-dexamethasone, the substances show a high to very high affinity to GR.
structure (smiles),measurement,setting,value
COc1cccc(C(Nc2cccc3nc(C)ccc23)C(O)(CCl)C(F)(F)F)c1 (centres unmarked) [Example 3],IC50,[1],0.025 µM
same,IC50,[2],0.064 µM
